Experiment [1] has as its target T1, Glucagon-like peptide-1 receptor (GLP-1) (Mus musculus, UniProt O35659).
T1 construct: mouse GLP-1 receptor-expressed βTC6 cells; host or cells: βTC6 cells
T1 sequence (O35659 22-463): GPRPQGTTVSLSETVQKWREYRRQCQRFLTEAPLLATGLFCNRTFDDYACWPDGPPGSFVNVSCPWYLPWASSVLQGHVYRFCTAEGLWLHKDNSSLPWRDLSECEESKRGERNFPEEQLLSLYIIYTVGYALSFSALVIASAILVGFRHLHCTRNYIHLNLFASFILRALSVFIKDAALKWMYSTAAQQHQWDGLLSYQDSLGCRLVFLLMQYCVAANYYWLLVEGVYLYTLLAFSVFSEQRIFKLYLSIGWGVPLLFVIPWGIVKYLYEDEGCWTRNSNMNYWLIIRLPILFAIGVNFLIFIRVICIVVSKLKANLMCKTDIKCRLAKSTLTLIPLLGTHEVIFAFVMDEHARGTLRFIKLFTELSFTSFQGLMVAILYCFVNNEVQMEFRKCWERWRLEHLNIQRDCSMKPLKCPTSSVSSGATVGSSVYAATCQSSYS
The experiment can be described thus: GLP-1R functional agonist assay (cAMP, HTRF, βTC6 cells). It counts as cell-based. Particulars: 100 µM; % of control response to 100 nM GLP-1(7–37). How it is done: (§1) The in-house assay protocol and experimental conditions are reported in our previous reports. The functional effect of dieckol and PFF-A was characterized based on their modulation effect on cytosolic Ca^2+ ion mobilization using a fluorimetric detection method or by measuring their effect on cAMP modulation using homogeneous time-resolved fluorescence (HTRF) detection.
(§2) Functional activity of phlorotannins over hA2AR, hα2CAR, hCB1R, GLP-1R, and h5-HT1BR was determined by measuring their effects on cAMP production by the HTRF detection method using transected cells expressing human cloned receptors.
(§3) The HBSS buffer (Invitrogen) complemented with 20 mM HEPES (pH 7.4) and 500 µM IBMX was used to suspend and distribute the βTC6 cells at a density of 1.5x10^4 cells/well. The plate was then incubated for 10 min at RT in the presence of HBSS (basal and stimulated control), the test compound, or the reference agonist and antagonist. […] Following incubation, the cells were lysed and the fluorescence acceptor (D2-labeled cAMP) and fluorescence donor (anti-cAMP antibody labeled with europium cryptate) were added.

For experiment [2], the target named is T1, Glucagon-like peptide-1 receptor (GLP-1). The experiment can be described thus: GLP-1R functional antagonist assay (cAMP, HTRF, βTC6 cells). The format is cell-based. To be noted: for Antagonist Effect: % inhibition of control response to 0.3 nM GLP-1(7–37); for IC50: antagonist effect, mean ± SD, n = 3; for inhibition at 12.5 µM / inhibition at 25 µM / inhibition at 100 µM: read-out: Antagonist Effect. How it is done: as §1, §2, §3

Experiment [3] concerns the target T2, Vasopressin 1A receptor (hV1AR) (Homo sapiens, UniProt P37288).
T2 construct: host or cells: CHO-V1AR cells
The experiment can be described thus: hV1AR functional antagonist assay (Ca2+ mobilization, CHO-V1AR cells). To be noted: for Antagonist Effect: % inhibition of control response to 10 nM AVP; for IC50: antagonist effect, mean ± SD, n = 3. The format is cell-based.
Excerpt: as §1
(§4) Then, fluorescent probe (Fluo4, Invitrogen) mixed with probenecid in HBSS buffer (Invitrogen, Carlsbad, CA, USA) supplemented with 20 mM HEPES, pH 7.4 (Invitrogen) was added to each well, allowing to equilibrate with the cells for 60 min at 37 °C, then 15 min at 22 °C.

Experiment [4] has as its target T2, Vasopressin 1A receptor (hV1AR). Set-up: method as in PMID 31238535. To be noted: 100 µM, % of control response to 1 µM AVP, value extracted from previous study ref 22, cited from earlier work.
Experiment [5] shares this target. The experiment can be described thus: hV1AR functional agonist assay (Ca2+ mobilization, CHO-V1AR cells). It counts as cell-based. To be noted: for Agonist Effect: % of control response to 1 µM AVP.
Excerpt: as §1, §4

Where [6] appears, read: 50 µM, dieckol value flagged as apparent inhibition (at least 25% agonist effect).
The mark [7] stands for this setting: 100 µM, values flagged as apparent inhibition (at least 25% agonist effect).

“And” between values parts separate entries of the source, which are not always exact repeats. Equal values may be shown once. Read-outs that look alike come from different tables or passages of the source. Marks after values point to notes of the source that are not given here.

T2 sequence (P37288 whole entry): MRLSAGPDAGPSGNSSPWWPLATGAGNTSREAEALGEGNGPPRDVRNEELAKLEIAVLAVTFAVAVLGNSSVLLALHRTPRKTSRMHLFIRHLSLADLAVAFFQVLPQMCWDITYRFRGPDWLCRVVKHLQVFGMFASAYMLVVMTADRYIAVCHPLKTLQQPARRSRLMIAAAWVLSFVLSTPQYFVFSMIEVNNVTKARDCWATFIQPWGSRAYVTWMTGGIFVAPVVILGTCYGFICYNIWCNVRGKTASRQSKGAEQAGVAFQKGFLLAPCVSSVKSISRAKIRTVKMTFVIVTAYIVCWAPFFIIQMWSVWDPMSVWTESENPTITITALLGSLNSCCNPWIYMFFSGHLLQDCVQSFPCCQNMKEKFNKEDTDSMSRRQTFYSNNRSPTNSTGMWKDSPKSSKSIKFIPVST

Take `Oc1cc(O)cc(Oc2c(O)cc(O)c3c2Oc2c(O)cc4oc5c(Oc6cc(O)cc(O)c6)c(O)cc(O)c5c4c2O3)c1` [PFF-A, phlorofucofuroeckol-A]: the “Agonist Effect” value in experiment [1] was −15.5 ± 2.55%; in experiment [4], 38.45 ± 7.14% and 38.45 ± 7.14 ^c %; in experiment [4] (listed as Phlorofucofuroeckol-A), 38.45 ± 7.14 ^a %. For the same compound, the “Antagonist Effect” value in experiment [2] (25 µM) was 57.37 ± 1.15%; in experiment [2] (50 µM), 83.87 ± 2.03%; in experiment [3] (setting [6]), 52.80 ± 8.09%; in experiment [3] (setting [7]), 56.90 ± 5.37 ^c %; in experiment [3] (100 µM, values flagged as apparent inhibition (at least 25% agonist effect), listed as Phlorofucofuroeckol-A) it was 56.90 ± 5.37 ^b %. The 50% inhibitory concentration (IC50) turned out to be 21.6 ± 2.16 µM in experiment [2] and 42.25 ± 0.41 µM in experiment [3]. For the same compound, the “potency relative to dieckol” value in experiment [2] (from IC50 values, GLP-1R antagonist effect) is reported as “two-fold higher”. Further, the inhibition at 12.5 µM in experiment [2] was determined as 25.6 ± 13.1%. Further, the inhibition at 25 µM in experiment [2] stood at 57.4%; in experiment [3] (read-out: Antagonist Effect), 35.7 ± 3.88%. Also, the inhibition at 100 µM in experiment [2] came out at 106 ± 1.27%; in experiment [3] (read-out: Antagonist Effect), 56.9 ± 5.37%. In experiment [3] (read-out: Antagonist Effect), the inhibition at 150 µM worked out at 56.1 ± 4.72%.
As for `Oc1cc(O)cc(Oc2c(O)cc(O)c3c2Oc2c(O)cc(Oc4c(O)cc(Oc5c(O)cc(O)c6c5Oc5c(O)cc(O)cc5O6)cc4O)cc2O3)c1` [Dieckol, dieckol], the “Agonist Effect” value in experiment [1] is −16.3 ± 1.13%; in experiment [5] (50 µM), 50.40 ± 0.42%; in experiment [5] (100 µM), 106.73 ± 2.97%; in experiment [5] (150 µM) it was 118.1 ± 2.83%. In addition, the “Antagonist Effect” value is 21.23 ± 7.31% in experiment [2] (25 µM); 53.80 ± 3.12% in experiment [2] (50 µM); 101.0 ± 8.20% in experiment [2] (100 µM); 41.53 ± 7.39 ^c % in experiment [3] (setting [6]); 57.77 ± 0.32 ^b % and 57.77 ± 0.32 ^c % in experiment [3] (setting [7]). For the same compound, the figures for the half-inhibitory concentration (IC50) in experiment [2] and in experiment [3] were 47.2 ± 2.46 µM and 82.7 ± 8.73 µM, respectively. In experiment [2], the inhibition at 12.5 µM was found to be 17.9 ± 6.32%. The inhibition at 25 µM in experiment [2] came to 21.2%. For the same compound, the values for the inhibition at 100 µM in experiment [2] and in experiment [3] (read-out: Antagonist Effect) were 101 ± 8.2% and 57.77 ± 0.32%, respectively. In addition, the response in experiment [5] (agonist effect, mean ± SD, n = 3) was half-maximal at 39.1 ± 2.12 µM (EC50). Moreover, the inhibition at 150 µM in experiment [3] (read-out: Antagonist Effect) was determined as 68.8 ± 0.85%.

Values taken from article PMC8228075, “In Vitro and In Silico Characterization of G-Protein Coupled Receptor (GPCR) Targets of Phlorofucofuroeckol-A and Dieckol” (Marine Drugs, 2021).
